Laboratory results as given in ChEMBL document CHEMBL4177646, “Discovery of novel nitroimidazole enols as Pseudomonas aeruginosa DNA cleavage agents” (Bioorg Med Chem, 2017).
Values after ≈ are worked out from the molar mass of the structure shown. Active and inactive are the calls of the source. The calls are words filed in the database; no cut-off is given here.

Tests used:
[1] = tested on: Staphylococcus aureus; experiment: Antibacterial activity against methicillin-resistant Staphylococcus aureus N315 after 24 hrs by micro broth dilution method; type: functional; conditions: N315, 24 h
[2] = tested on: Staphylococcus aureus; experiment: Antibacterial activity against drug-resistant Staphylococcus aureus after 24 hrs by micro broth dilution method; type: functional
[3] = tested on: Staphylococcus aureus; experiment: Antibacterial activity against Staphylococcus aureus ATCC 25923 after 24 hrs by micro broth dilution method; type: functional; conditions: ATCC 25923, 24 h
[4] = tested on: Staphylococcus aureus; experiment: Antibacterial activity against Staphylococcus aureus ATCC 29213 after 24 hrs by micro broth dilution method; type: functional; conditions: ATCC 29213, 24 h
[5] = tested on: Escherichia coli; experiment: Antibacterial activity against drug-resistant Escherichia coli after 24 hrs by micro broth dilution method; type: functional
[6] = tested on: Escherichia coli; experiment: Antibacterial activity against Escherichia coli ATCC 25922 after 24 hrs by micro broth dilution method; type: functional; conditions: ATCC 25922, 24 h
[7] = tested on: Pseudomonas aeruginosa; experiment: Antibacterial activity against drug-resistant Pseudomonas aeruginosa after 24 hrs by micro broth dilution method; type: functional
[8] = tested on: Pseudomonas aeruginosa; experiment: Antibacterial activity against Pseudomonas aeruginosa ATCC 27853 after 24 hrs by micro broth dilution method; type: functional; conditions: ATCC 27853, 24 h
[9] = tested on: Candida albicans; experiment: Antifungal activity against drug-resistant Candida albicans after 24 hrs by micro broth dilution method; type: functional
[10] = tested on: Candida albicans; experiment: Antifungal activity against Candida albicans ATCC 90023 after 24 hrs by micro broth dilution method; type: functional; conditions: ATCC 90023, 24 h
[11] = tested on: Candida tropicalis; experiment: Antifungal activity against Candida tropicalis after 24 hrs by micro broth dilution method; type: functional
[12] = tested on: Pseudomonas aeruginosa; experiment: Potency index, ratio of norfloxacin MIC to compound MIC for Pseudomonas aeruginosa ATCC 27853; type: functional
[13] = tested on: Pseudomonas aeruginosa; experiment: Potency index, ratio of metronidazole MIC to compound MIC for Pseudomonas aeruginosa ATCC 27853; type: functional
[14] = tested on: Pseudomonas aeruginosa; experiment: Bactericidal activity against drug sensitive Pseudomonas aeruginosa assessed as bacterial load at 4 times MIC after 120 mins by time-kill assay (reference value: 9.3 10^5 CFU/ml); type: functional
[15] = tested on: Pseudomonas aeruginosa; experiment: Bactericidal activity against drug sensitive Pseudomonas aeruginosa assessed as bacterial load at 4 times MIC after 150 mins by time-kill assay (reference value: 4.3 10^6 CFU/ml); type: functional
[16] = tested on: Pseudomonas aeruginosa; experiment: Bactericidal activity against drug sensitive Pseudomonas aeruginosa assessed as bacterial load at 4 times MIC after 180 mins by time-kill assay (reference value: 3.5 10^7 CFU/ml); type: functional
[17] = tested on: Pseudomonas aeruginosa; experiment: Bactericidal activity against drug sensitive Pseudomonas aeruginosa assessed as bacterial load at 4 times MIC after 210 mins by time-kill assay (reference value: 3.2 10^9 CFU/ml); type: functional
[18] = tested on: Pseudomonas aeruginosa; experiment: Bactericidal activity against drug sensitive Pseudomonas aeruginosa assessed as bacterial load at 4 times MIC after 240 mins by time-kill assay (reference value: 1.1 10^10 CFU/ml); type: functional
[19] = tested on: Pseudomonas aeruginosa; experiment: Bactericidal activity against drug sensitive Pseudomonas aeruginosa assessed as bacterial load at 4 times MIC after 270 mins by time-kill assay (reference value: 1.8 10^10 CFU/ml); type: functional
[20] = tested on: DNA; experiment: Binding affinity to sensitive Pseudomonas aeruginosa DNA assessed as hypochromic effect at 3.81 x 10^-6mol/L by neutral red dye based UV-vis spectroscopic method; type: nucleic-acid assay
[21] = tested on: DNA; experiment: Induction of sensitive Pseudomonas aeruginosa DNA cleavage at 75 uM by ethidium bromide staining-based agarose gel electrophoresis; type: nucleic-acid assay
[22] = tested on: Pseudomonas aeruginosa; experiment: Bactericidal activity against drug sensitive Pseudomonas aeruginosa assessed as log reduction in bacterial load at 4 times MIC after 120 mins by time-kill assay; type: functional
[23] = target: T1, Albumin (Homo sapiens, UniProt P02768); experiment: Binding affinity to HSA assessed as Stern-Volmer quenching constant at pH 7.4 at 290 K by fluorescence assay; type: ADME; conditions: isolated protein
[24] = target: T1, Albumin; experiment: Binding affinity to HSA assessed as Stern-Volmer quenching constant at pH 7.4 at 300 K by fluorescence assay; type: ADME; conditions: isolated protein
[25] = target: T1, Albumin; experiment: Binding affinity to HSA assessed as Stern-Volmer quenching constant at pH 7.4 at 313 K by fluorescence assay; type: ADME; conditions: isolated protein
[26] = target: T1, Albumin; experiment: Binding affinity to HSA assessed as biomolecular quenching rate constant at pH 7.4 at 290 K by fluorescence assay; type: ADME; conditions: isolated protein
[27] = target: T1, Albumin; experiment: Binding affinity to HSA assessed as biomolecular quenching rate constant at pH 7.4 at 300 K by fluorescence assay; type: ADME; conditions: isolated protein
[28] = target: T1, Albumin; experiment: Binding affinity to HSA assessed as biomolecular quenching rate constant at pH 7.4 at 313 K by fluorescence assay; type: ADME; conditions: isolated protein
[29] = target: T1, Albumin; experiment: Binding affinity to HSA assessed as modified Stern-Volmer quenching constant at pH 7.4 at 290 K by fluorescence assay; type: ADME; conditions: isolated protein
[30] = target: T1, Albumin; experiment: Binding affinity to HSA assessed as modified Stern-Volmer quenching constant at pH 7.4 at 300 K by fluorescence assay; type: ADME; conditions: isolated protein
[31] = target: T1, Albumin; experiment: Binding affinity to HSA assessed as modified Stern-Volmer quenching constant at pH 7.4 at 313 K by fluorescence assay; type: ADME; conditions: isolated protein
[32] = target: T1, Albumin; experiment: Binding affinity to HSA assessed as equilibrium binding constant at pH 7.4 at 290 K by scatchard assay; type: ADME; conditions: isolated protein
[33] = target: T1, Albumin; experiment: Binding affinity to HSA assessed as equilibrium binding constant at pH 7.4 at 300 K by scatchard assay; type: ADME; conditions: isolated protein
[34] = target: T1, Albumin; experiment: Binding affinity to HSA assessed as equilibrium binding constant at pH 7.4 at 313 K by scatchard assay; type: ADME; conditions: isolated protein
[35] = tested on: Candida tropicalis; experiment: Potency index, ratio of fluconazole MIC to compound MIC for Candida tropicalis; type: functional
[36] = tested on: DNA; experiment: Binding affinity to sensitive Pseudomonas aeruginosa DNA assessed as hypochromic effect by neutral red dye based UV-vis spectroscopic method; type: nucleic-acid assay

T1 sequence (P02768 whole entry): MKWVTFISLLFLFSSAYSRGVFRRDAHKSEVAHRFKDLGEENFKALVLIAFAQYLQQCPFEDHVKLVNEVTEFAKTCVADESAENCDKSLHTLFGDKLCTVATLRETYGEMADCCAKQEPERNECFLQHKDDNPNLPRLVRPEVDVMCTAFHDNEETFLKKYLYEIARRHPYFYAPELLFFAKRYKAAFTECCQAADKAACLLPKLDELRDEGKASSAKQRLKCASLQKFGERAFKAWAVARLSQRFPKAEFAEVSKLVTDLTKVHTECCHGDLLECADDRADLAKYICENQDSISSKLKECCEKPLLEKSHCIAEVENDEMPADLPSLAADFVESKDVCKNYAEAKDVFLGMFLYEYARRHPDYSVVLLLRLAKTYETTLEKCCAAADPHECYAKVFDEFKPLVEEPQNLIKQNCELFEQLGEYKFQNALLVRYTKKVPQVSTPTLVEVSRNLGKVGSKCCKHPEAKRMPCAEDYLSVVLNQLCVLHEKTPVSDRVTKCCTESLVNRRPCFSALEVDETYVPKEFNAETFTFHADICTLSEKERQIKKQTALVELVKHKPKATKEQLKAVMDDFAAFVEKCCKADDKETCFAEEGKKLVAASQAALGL

Molecule `CC(=O)/C(=C\c1c[nH]c2ccccc12)n1c([N+](=O)[O-])cnc1C` has an MIC [1] of 830 µM (≈ 258 µg/mL), an MIC [2] of 1650 µM (≈ 512 µg/mL) and an MIC [3] of 830 µM (≈ 258 µg/mL). It also gave an MIC [4] of 830 µM (≈ 258 µg/mL), an MIC [5] of 1650 µM (≈ 512 µg/mL) and an MIC [6] of 420 µM (≈ 130 µg/mL). It also gave an MIC [7] of 420 µM (≈ 130 µg/mL), an MIC [8] of 420 µM (≈ 130 µg/mL) and an MIC [9] of 512 µg/mL (≈ 1650 µM). For the same molecule, the MIC [10] was 512 µg/mL (≈ 1650 µM), the MIC [11] was 512 µg/mL (≈ 1650 µM) and the Ratio [12] was 4 - 16.

For `Cc1ncc([N+](=O)[O-])n1/C(=C/c1ccccc1)C(C)O` (configuration not stated), the MIC [1] was 1870 µM (≈ 511 µg/mL), the MIC [2] was 1870 µM (≈ 511 µg/mL) and the MIC [3] was 1870 µM (≈ 511 µg/mL). It also gave an MIC [4] of 1870 µM (≈ 511 µg/mL), an MIC [5] of 1870 µM (≈ 511 µg/mL) and an MIC [6] of 1870 µM (≈ 511 µg/mL). The MIC [7] was 940 µM (≈ 257 µg/mL), the MIC [8] was 230 µM (≈ 62.9 µg/mL) and the MIC [9] was 512 µg/mL (≈ 1870 µM). The MIC [10] was 16 µg/mL (≈ 58.5 µM), the MIC [11] was 128 µg/mL (≈ 468 µM) and the Ratio [12] was 4 - 16.

`Cc1ccc(/C=C(\C(C)O)n2c([N+](=O)[O-])cnc2C)cc1` (configuration not stated) gave an MIC [1] of 1780 µM (≈ 511 µg/mL), an MIC [2] of 1780 µM (≈ 511 µg/mL) and an MIC [3] of 890 µM (≈ 256 µg/mL). It also gave an MIC [4] of 1780 µM (≈ 511 µg/mL), an MIC [5] of 1780 µM (≈ 511 µg/mL) and an MIC [6] of 440 µM (≈ 126 µg/mL). It also gave an MIC [7] of 890 µM (≈ 256 µg/mL), an MIC [8] of 440 µM (≈ 126 µg/mL) and an MIC [9] of 512 µg/mL (≈ 1780 µM). It also gave an MIC [10] of 64 µg/mL (≈ 223 µM), an MIC [11] of 128 µg/mL (≈ 445 µM) and a Ratio [12] of 4. It also gave a Ratio [13] of 7.

`Cc1ncc([N+](=O)[O-])n1/C(=C/c1ccc(N(C)C)cc1)C(C)O` (configuration not stated) was tested, and the MIC [1] was 1620 µM (≈ 513 µg/mL), the MIC [2] was 1620 µM (≈ 513 µg/mL) and the MIC [3] was 810 µM (≈ 256 µg/mL). For the same molecule, the MIC [4] was 1620 µM (≈ 513 µg/mL), the MIC [5] was 1620 µM (≈ 513 µg/mL) and the MIC [6] was 810 µM (≈ 256 µg/mL). The MIC [7] was 1620 µM (≈ 513 µg/mL), the MIC [8] was 400 µM (≈ 127 µg/mL) and the MIC [9] was 512 µg/mL (≈ 1620 µM). It also gave an MIC [10] of 64 µg/mL (≈ 202 µM), an MIC [11] of 128 µg/mL (≈ 405 µM) and a Ratio [12] of 4. The Ratio [13] was 7.

`CC(=O)/C(=C\c1ccccc1)n1c([N+](=O)[O-])cnc1C` showed an MIC [1] of 1880 µM (≈ 510 µg/mL), an MIC [2] of 940 µM (≈ 255 µg/mL) and an MIC [3] of 470 µM (≈ 127 µg/mL). It also gave an MIC [4] of 940 µM (≈ 255 µg/mL), an MIC [5] of 940 µM (≈ 255 µg/mL) and an MIC [6] of 230 µM (≈ 62.4 µg/mL). The MIC [7] was 470 µM (≈ 127 µg/mL), the MIC [8] was 470 µM (≈ 127 µg/mL) and the MIC [9] was 256 µg/mL (≈ 944 µM). For the same molecule, the MIC [10] was 32 µg/mL (≈ 118 µM), the MIC [11] was 128 µg/mL (≈ 472 µM) and the Ratio [12] was 4 - 16.

With `COc1cc(/C=C(\C(C)O)n2c([N+](=O)[O-])cnc2C)ccc1O` (configuration not stated) the MIC [1] was 1600 µM (≈ 511 µg/mL), the MIC [2] was 1600 µM (≈ 511 µg/mL) and the MIC [3] was 800 µM (≈ 255 µg/mL). It also gave an MIC [4] of 800 µM (≈ 255 µg/mL), an MIC [5] of 1600 µM (≈ 511 µg/mL) and an MIC [6] of 400 µM (≈ 128 µg/mL). For the same molecule, the MIC [7] was 400 µM (≈ 128 µg/mL), the MIC [8] was 100 µM (≈ 31.9 µg/mL) and the MIC [9] was 256 µg/mL (≈ 802 µM). The MIC [10] was 32 µg/mL (≈ 100 µM), the MIC [11] was 128 µg/mL (≈ 401 µM) and the Activity [14] was 9.3 ×10⁶ CFU/ml. It also gave an Activity [15] of 3 ×10³ CFU/ml, an Activity [16] of 1.5 ×10² CFU/ml and an Activity [17] of 87 CFU/ml. The Activity [18] was 72 CFU/ml, the Activity [19] was 65 CFU/ml and the Activity [20] was “Active”. For the same molecule, the Activity [21] was “Active”, the Activity [22] was over 3.5 log10CFU/ml and the KSV [23] was 7.54 ×10⁴ L/mol. It also gave a KSV [24] of 6.12 ×10⁴ L/mol, a KSV [25] of 4.99 ×10⁴ L/mol and a Kq [26] of 1.18 ×10¹³ L/mol/s. It also gave a Kq [27] of 9.56 ×10¹³ L/mol/s, a Kq [28] of 7.79 ×10¹³ L/mol/s and a KSV [29] of 82200 M⁻¹. It also gave a KSV [30] of 61800 M⁻¹, a KSV [31] of 47400 M⁻¹ and a Kb [32] of 4.77 ×10⁴ L/mol. For the same molecule, the Kb [33] was 4.77 ×10⁴ L/mol, the Kb [34] was 4.83 ×10⁴ L/mol and the Ratio [12] was 4 - 16. The Ratio [35] was 4 and the K [36] was 1.83 ×10⁴ L/mol.
